This experiment relates to MM1.s. In words: MTT viability assay, MM1.s. Format: cell-based. The note with it: Homo sapiens, Multiple Myeloma, read-out: IC50 Avg ± s.d. (n = 3), MM1.s. From the text: Cell Lines: PC-9 cell line used was obtained from Sigma Aldrich and grown in RPMI 1640 medium with 10% fetal bovine serum and 1% penicillin/streptomycin. HCC4006, U266, MM1.s, and Beas-2B cell lines were obtained from ATCC and cultured in either RPMI 1640 or DMEM with 10% fetal bovine serum and 1% penicillin/streptomycin. All cell lines were also checked for mycoplasma every six months and subjected to short tandem repeat (STR) analysis for cell line validation. CRISPR Cas9: CRISPR Guide RNA 2 targeting ERO1α and CRISPR Guide RNA 4 were purchased from Genscript in the pLentiCRISPR V2 plasmid containing puromycin/ampicillin selection marker. Lentivirus was made from HEK 293T cells by co-transfection with GuideRNA of interest, pVSVG, and pPAX2 plasmids. […] Plate was then read on the BioTek Cytation 5 at 530/590 nm. […] Plate was then read at 570 nm. Treated wells were all compared to DMSO control wells to calculate percent growth inhibition and the IC50 was calculated using GraphPad (log(inhibitor) vs growth inhibition). […] Images were then quantified using ImageJ. […] Cells were aliquoted at 1 million cells per PCR tube in PBS and heated in Bio-Rad T100 thermal cycler at indicated temperatures (RT, 46° C., 48° C., 50° C., 52° C., 54° C., 56°, 58° C., and 60° C.) for 3 minutes and aggregation temperature was determined by western blot analysis. […]
A general note: Tetrazolium dyes change colour on reduction, which living cells bring about.

For `CN(C)c1ccc(/C=C2\Oc3cc(O)ccc3C2=O)cc1` [Compound T151742], the IC50 (in general, the midpoint of a concentration-inhibition curve) stood at 7.45 ± 1.12 µM.

These data come from patent publication US20250064773A1, “TARGETING ERO1 ALPHA WITH AURONE DERIVATIVES” (West Virginia University Board of Governors on behalf of …, priority 2021, published 2025).
